Measured values as given in patent publication US9932350B2, “Inhibitors of IRAK4 activity” (MERCK SHARP & DOHME CORP., priority 2014, dated 2018).

Target: GST tagged IRAK4 (Homo sapiens (Human), UniProt Q9NWZ3)
Assay: IRAK4 Kinase Assay (IMAP fluorescence polarization)
Assay type: biochemical
Conditions: 0.5 nM GST tagged IRAK4, 100 μM ATP, 30 minutes at 25° C.
Experimental: The kinase activity of IRAK4 is determined by its ability to catalyze the phosphorylation of a fluorescent polypeptide substrate. The extent of phosphorylation is measured using the IMAP technology (Molecular Devices) where the phosphorylated fluorescent substrate binds to the large M(III)-based nanoparticles which reduces the rotational speed of the substrate and thus increases its fluorescent polarization (FP).
20 μL reaction mixture contains 10 mM TriHCl, pH 7.2, 0.5 nM GST tagged IRAK4 (SignalChem), 100 nM fluorescent peptide substrate (RP7030, Molecular Devices), 100 μM ATP, 1 mM DDT, 1 mM MgCl2, and 0.01% Tween 20. The reaction is initiated by the addition of ATP. After incubation for 30 minutes at 25° C., 60 μL of Progressive IMAP Reagent (Molecular Devices) is added to stop the reaction. Change in RP7030's FP is determined by a FP reader (Analyst HT, LJL BioSystems).

Sequence of GST tagged IRAK4 (Q9NWZ3 whole entry): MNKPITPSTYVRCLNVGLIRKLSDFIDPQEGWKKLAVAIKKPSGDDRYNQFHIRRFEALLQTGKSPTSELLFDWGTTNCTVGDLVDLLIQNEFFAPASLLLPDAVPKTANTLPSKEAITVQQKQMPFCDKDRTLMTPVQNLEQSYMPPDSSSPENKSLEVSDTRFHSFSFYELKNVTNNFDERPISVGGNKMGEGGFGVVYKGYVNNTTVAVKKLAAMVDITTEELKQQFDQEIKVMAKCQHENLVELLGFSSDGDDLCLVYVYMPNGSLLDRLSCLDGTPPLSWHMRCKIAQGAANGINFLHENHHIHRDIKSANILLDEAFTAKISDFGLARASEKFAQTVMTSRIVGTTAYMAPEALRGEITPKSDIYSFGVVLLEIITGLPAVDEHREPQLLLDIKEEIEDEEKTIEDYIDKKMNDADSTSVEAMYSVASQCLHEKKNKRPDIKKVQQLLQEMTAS

SMILES	IC50
COc1ccc2ncnc(N[C@H]3CC[C@H](N4CCOCC4)CC3)c2c1 [Example 2-8, 6-methoxy-N-[trans-4-(morpholin-4-yl)cyclohexyl]quinazolin-4-amine]	16 nM
Clc1ccc2ncnc(N[C@H]3CC[C@H](N4CCOCC4)CC3)c2c1 [Example 2-13, 6-chloro-N-[trans-4-(morpholin-4-yl)cyclohexyl]quinazolin-4-amine]	6 nM
N#Cc1ccc2ncnc(N[C@H]3CC[C@H](N4CCN(C(=O)CCO)CC4)CC3)c2c1 [Example 6-22, 4-({trans-4-[4-(3-hydroxypropanoyl)piperazin-1-yl]cyclohexyl}amino) quinazoline-6-carbonitrile]	9 nM
N#Cc1ccc2ncnc(N[C@H]3CC[C@H](N4CCN(C(=O)C(F)F)CC4)CC3)c2c1 [Example 6-12, 4-({trans-4-[4-(difluoroacetyl)piperazin-1-yl]cyclohexyl}amino) quinazoline-6-carbonitrile]	27 nM
Fc1ccc2ncnc(N[C@H]3CC[C@H](N4CCOCC4)CC3)c2c1 [Example 2-9, 6-fluoro-N-[trans-4-(morpholin-4-yl)cyclohexyl]quinazolin-4-amine]	113 nM
N#Cc1ccc2ncnc(N[C@H]3CC[C@H](NCC(F)(F)F)CC3)c2c1 [Example 3-21, 4-({trans-4-[(2,2,2-trifluoroethyl)amino]cyclo-hexyl}amino)quinazoline-6-carbonitrile]	512 nM
N#Cc1ccc2ncnc(NC3CCC(N4CCOCC4)[C@@H]4C[C@H]34)c2c1 (stereo partly drawn) [Example 2-18, 4-{[(1S,6R)-5-(morpholin-4-yl)bicyclo[4.1.0]hept-2-yl]amino}quinazoline-6-carbonitrile]	56 nM
COc1cc2c(N[C@H]3CC[C@H](N4CCOCC4)CC3)ncnc2cc1F [Example 2-12, 7-fluoro-6-methoxy-N-[trans-4-(morpholin-4-yl)cyclohexyl]quinazolin-4-amine]	58 nM
CN(C1CC1)[C@H]1CC[C@H](Nc2ncnc3ccc(C#N)cc23)CC1 [Example 3-32, 4-({trans-4-[cyclopropyl(methyl)amino]cyclohexyl}amino) quinazoline-6-carbonitrile]	15 nM
CN(C)[C@H]1CC[C@H](Nc2ncnc3ccc(OCCCC#N)cc23)CC1 [Example 2-16, 4-[(4-{[trans-4-(dimethylamino)cyclohexyl]amino}quinazolin-6-yl)oxy]butanenitrile]	734 nM
CC(F)(F)C(=O)N1CCN([C@H]2CC[C@H](Nc3ncnc4ccc(C#N)cc34)CC2)CC1 [Example 6-6, 4-({trans-4-[4-(2,2-difluoropropanoyl)piperazin-1-yl]cyclohexyl}amino) quinazoline-6-carbonitrile]	16 nM
CC1OCCN([C@H]2CC[C@@H](Nc3ncnc4ccc(C#N)cc34)CC2)C1C (stereo partly drawn) [Example 3-8, 4-{[cis-4-(2,3-dimethylmorpholin-4-yl)cyclohexyl]amino} quinazoline-6-carbonitrile]	2550 nM
N#Cc1ccc2ncnc(N[C@H]3CC[C@H](N4CCN(C(=O)C5CC(F)C5)CC4)CC3)c2c1 (stereo partly drawn) [Example 6-13, 4-[(trans-4-{4-[(3-fluorocyclobutyl)carbonyl]piperazin-1-yl}cyclohexyl)amino] quinazoline-6-carbonitrile]	10 nM
COC1CN([C@H]2CC[C@H](Nc3ncnc4ccc(C#N)cc34)CC2)C1 [Example 3-29, 4-{[trans-4-(3-methoxyazetidin-1-yl)cyclohexyl]amino} quinazoline-6-carbonitrile]	11 nM
CC1(O)CCN([C@H]2CC[C@H](Nc3ncnc4ccc(C#N)cc34)CC2)C1 (stereo partly drawn) [Example 3-36, 4-{[trans-4-(3-hydroxy-3-methylpyrrolidin-1-yl)cyclohexyl]amino} quinazoline-6-carbonitrile]	25 nM
Cc1c(C#N)ccc2ncnc(N[C@H]3CC[C@H](N4CCOCC4)CC3)c12 [Example 5-2, 5-methyl-4-{[trans-4-(morpholin-4-yl)cyclohexyl]amino} quinazoline-6-carbonitrile]	52 nM
COCCN[C@H]1CC[C@H](Nc2ncnc3ccc(C#N)cc23)CC1 [Example 3-22, 4-({trans-4-[(2-methoxyethyl)amino]cyclohexyl}amino)quinazoline-6-carbonitrile]	16 nM
N#Cc1ccc2ncnc(N[C@H]3CC[C@H](N4C[C@@H]5C[C@H]4CO5)CC3)c2c1 [Example 3-18, 4-({trans-4-[(1S,4S)-2-oxa-5-azabicyclo[2.2.1]hept-5-yl]cyclohexyl}amino) quinazoline-6-carbonitrile]	114 nM
CC1CN([C@H]2CC[C@H](Nc3ncnc4ccc(C#N)cc34)CC2)CC(C)O1 (single isomer, unassigned) [Example 3-15, 4-({trans-4-[2S,6S or 2R,6R)-2,6-dimethylmorpholin-4-yl]cyclohexyl}amino) quinazoline-6-carbonitrile]	58 nM
N#Cc1ccc2ncnc(N[C@H]3CC[C@H](NC4CC4)CC3)c2c1 [Example 3-23, 4-{[trans-4-(cyclopropylamino)cyclo-hexyl]amino}quinazoline-6-carbonitrile]	26 nM

Continued, values first:

IC50	SMILES
53 nM	N#Cc1ccc2ncnc(N[C@H]3CC[C@H](N4CCCC5COCCC54)CC3)c2c1 (stereo partly drawn) [Example 3-25, 4-{[trans-4-(hexahydro-2H-pyrano[4,3-b]pyridin-1(5H)-yl)cyclohexyl]amino} quinazoline-6-carbonitrile]
46 nM	N#Cc1ccc2ncnc(N[C@H]3CC[C@H](N4CCOC5(CC5)C4)CC3)c2c1 [Example 3-26, 4-{[trans-4-(4-oxa-7-azaspiro[2.5]oct-7-yl)cyclohexyl]amino} quinazoline-6-carbonitrile]
5 nM	N#Cc1ccc2ncnc(N[C@H]3CC[C@H](N4CCCC(CN5CCOCC5)C4)CC3)c2c1 (single isomer, unassigned) [Example 3-42, 4-({trans-4-[(3R or 3S)-3-(morpholin-4-ylmethyl)piperidin-1-yl]cyclohexyl}amino) quinazoline-6-carbonitrile]
8 nM	N#Cc1ccc2ncnc(N[C@H]3CC[C@H](N4CCN(C(=O)C(O)C5CC5)CC4)CC3)c2c1 (stereo partly drawn) [Example 6-20, 4-[(trans-4-{4-[cyclopropyl(hydroxy)acetyl]piperazin-1-yl}cyclohexyl)amino] quinazoline-6-carbonitrile]
17 nM	CN1CCN([C@H]2CC[C@H](Nc3ncnc4ccc(C#N)cc34)CC2)CC1 [Example 3-30, 4-{[trans-4-(4-methylpiperazin-1-yl)cyclohexyl]amino} quinazoline-6-carbonitrile]
768 nM	N#Cc1ccc2ncnc(N[C@H]3CC[C@@H](N4CCC4)CC3)c2c1 [Example 3-6, 4-{[cis-4-(azetidin-1-yl)cyclohexyl]amino} quinazoline-6-carbonitrile]
10 nM	C[C@@H]1COCCN1[C@H]1CC[C@H](Nc2ncnc3ccc(C#N)cc23)CC1 [Example 3-31, 4-({trans-4-[(3R)-3-methylmorpholin-4-yl]cyclohexyl}amino) quinazoline-6-carbonitrile]
908 nM	N#Cc1ccc2ncnc(NC3CCC(N4CCCC(C(F)(F)F)C4)CC3)c2c1 (single isomer, unassigned) [Example 3-5, 4-({cis or trans-4-[(3R or S)-3-(trifluoromethyl)piperidin-1-yl]cyclohexyl}amino) quinazoline-6-carbonitrile]
10 nM	N#Cc1ccc2ncnc(N[C@H]3CC[C@H](N4CCN(C(=O)CC5COC5)CC4)CC3)c2c1 [Example 6-18, 4-({trans-4-[4-(oxetan-3-ylacetyl)piperazin-1-yl]cyclohexyl}amino) quinazoline-6-carbonitrile]
579 nM	N#Cc1ccc2ncnc(N[C@H]3CC[C@H](N4C[C@H]5CC[C@@H](C4)O5)CC3)c2c1 [Example 3-50, 4-({trans-4-[(1R,5S)-8-oxa-3-azabicylco[3.2.1]oct-3-yl]cyclohexyl}amino) quinazoline-6-carbonitrile]
11 nM	CC(=O)N1CCN([C@H]2CC[C@H](Nc3ncnc4ccc(C#N)cc34)CC2)CC1 [Example 6-2, 4-{[trans-4-(4-acetylpiperazin-1-yl)cyclohexyl]amino} quinazoline-6-carbonitrile]
33 nM	N#Cc1ccc2ncnc(N[C@H]3CC[C@H](N4CCCC(C(F)(F)F)C4)CC3)c2c1 (single isomer, unassigned) [Example 3-2, 4-({cis or trans-4-[(3R or S)-3-(trifluoromethyl)piperidin-1-yl]cyclohexyl}amino) quinazoline-6-carbonitrile]
7 nM	N#Cc1ccc2ncnc(N[C@H]3CC[C@H](N4CCOC(CO)C4)CC3)c2c1 (single isomer, unassigned) [Example 3-11, 4-({trans-4-[(2R or 2S)-2-(hydroxymethyl)morpholin-4-yl]cyclohexyl}amino) quinazoline-6-carbonitrile]
7 nM	N#Cc1ccc2ncnc(NC3CCC(N4CCCC(C(F)(F)F)C4)CC3)c2c1 (single isomer, unassigned) [Example 3-3, 4-({cis or trans-4-[(3R or S)-3-(trifluoromethyl)piperidin-1-yl]cyclohexyl}amino) quinazoline-6-carbonitrile]
15 nM	N#Cc1ccc2ncnc(N[C@H]3CC[C@H](N4CCCC4)CC3)c2c1 [Example 3-44, 4-{[trans-4-(pyrrolidin-1-yl)cyclohexyl]amino} quinazoline-6-carbonitrile]
